Experimental data taken from publication PMC5522529, “Mechanisms of Paradoxical Activation of AMPK by the Kinase Inhibitors SU6656 and Sorafenib” (Cell Chemical Biology, 2017).

Columns and labels:
Conditions in all cases: 1 hr
[1] = target: T1, AMPK-γ2 R531G (RG) mutant (Homo sapiens, UniProt Q9UGJ0, R531G); assay: AMPK activity in HEK293 cells expressing R531G AMPK-γ2; type: cell-based
T1 construct: expressed in transfected cells
Text: The next possibility was that, like several other AMPK-activating drugs, SU6656 inhibits mitochondrial ATP synthesis, and thus activates AMPK indirectly by increasing cellular AMP/ADP. To test this, we used cell lines inducibly expressing either WT AMPK-γ2 or an AMP/ADP-resistant R531G (RG) mutant ([Hawley et al., 2010]). […] There were no effects of SU6656 on cellular oxygen uptake, unlike berberine. Subsequent addition of the uncoupler 2,4-dinitrophenol (DNP), which prevents the respiratory chain from being limited by ADP supply, increased oxygen uptake identically in control and SU6656-treated cells but had no effect following berberine, as expected for a complex I inhibitor (Figure S2).
(§1) (B) WT or RG cells were treated as in (A) and nucleotides extracted for analysis (mean ± SD, n = 3). […] (E) (See also Figure S2) Time courses of cellular oxygen uptake before and after addition of the indicated concentrations of sorafenib (SO, μM), SU6656 (100 μM) or phenformin (PHEN, 10 mM) (mean ± SEM, n = 4). (F) Effect of various concentrations of sorafenib or phenformin (10 mM) on activation (top, mean ± SEM, n = 3) or phosphorylation (bottom) of AMPK in cells expressing wild-type AMPK-γ2 (WT) or the R531G mutant AMPK-γ2 (RG). In all panels, asterisks show significant differences from DMSO controls (ns, not significant). In (B), daggers (†) show significant differences between results in WT and RG cells. *p < 0.05, **p < 0.01, ***p < 0.001, ****p < 0.0001, ^††††p < 0.0001.
HEK-293 cells stably expressing tetracycline-inducible FLAG-tagged human AMPK-γ2, or an R531G mutant, were generated by introducing the corresponding DNAs into Flp-In™ T-REx™ 293 cells ([Auciello et al., 2014]). Expression of the FLAG-tagged constructs was induced for 48 hr using tetracycline (1 μg.ml^-1) prior to addition of compounds under test. Transient transfections were carried out 36-48 hr prior to experiments, using Fugene 6 according to manufacturers’ instructions.

[2] = test system: AMPK; assay: AMPK activity and Thr172 phosphorylation in HEK293 cells; type: cell-based, human
Protocol: Figure 1 SU6656 Activates AMPK but Not AMPK-Related Kinases (A) HEK293 cells were incubated with the indicated concentrations of SU6656 or berberine (300 μM) for 1 hr; total AMPK activity was assayed in immunoprecipitates (top; mean ± SEM, n = 4), and phosphorylation of AMPK (Thr172), ACC (Ser80), and Raptor (Ser792) analyzed by western blotting (bottom; n = 2). (B) HEK293 cells were incubated with 100 μM SU6656 (1 hr), AMPK complexes containing α1, α2, β1, and β2 immunoprecipitated using isoform-specific antibodies, and AMPK activity measured (mean ± SEM, n = 4). (C) HeLa cells stably expressing LKB1 ([Fogarty et al., 2010]) were incubated with 100 μM SU6656 for 1 hr, AMPK or individual ARKs immunoprecipitated, and kinase assays carried out (antibodies that distinguish MARK2/MARK3 were not available, so they were assayed together). Results are means ± SEM (n = 2). In all panels, asterisks indicate significant differences from controls without SU6656. *p < 0.05, **p < 0.01, ****p < 0.0001. […]
Endogenous AMPK was immunoprecipitated using the specified antibodies (for total AMPK, an equal mixture of anti-α1 and –α2 antibodies) and assayed at 200 μM ATP ([Hardie et al., 2000], [Towler et al., 2008]) using the AMARA peptide ([Dale et al., 1995]) as substrate, except for assays of allosteric activation by AMP (Figure 5A) where the SAMS peptide was used as substrate with 2 mM ATP ([Gowans et al., 2013]). The AMPK-related kinases SIK1, SIK2, SIK3, SNARK, MARK2/3 and MARK4 were immunoprecipitated and assayed as previously described ([Lizcano et al., 2004]) in lysates of Hela cells stably expressing LKB1 ([Fogarty et al., 2010]). LKB1 was assayed using the LKBtide peptide as substrate ([Sakamoto et al., 2004]).

[3] = test system: HEK293 cells; assay: Cellular AMP:ATP and ADP:ATP ratios; type: cell-based, human
Protocol: as §1
Cells were incubated for 60 min and AMPK activity measured; results in the top panel are means ± SEM (n = 8), with significant differences from the DMSO control indicated (ns, not significant). The bottom panels show western blots from the same experiment (n = 2). (B) Analysis of AMP:ATP and ADP:ATP ratios from a parallel experiment to that in (A). Results are means ± SEM (n = 3), with significant differences from the DMSO control indicated. *p < 0.05, **p < 0.01, ****p < 0.0001.
The levels of AMP, ADP and ATP were measured using a TSQ Quantiva interfaced with Ultimate 3000 Liquid Chromatography system (ThermoScientific), equipped with a porous graphitic carbon column (HyperCarb 30x1mm ID 3 μm; Part No: C-35003-031030, Thermo-Scientific). Mobile phase buffer A consisted of 0.3% (v/v) formic acid adjusted to pH 9 with ammonia prior to a 1:10 dilution. Mobile phase buffer B was 80% (v/v) acetonitrile. The column was maintained at a controlled temperature of 30°C and was equilibrated with 10% buffer B for 5 minutes at a constant flow rate of 0.06 mL/min. Aliquots of 1 μL of each sample were loaded onto the column and compounds eluted with a linear gradient of 10%-60% buffer B over 9 min. Buffer B was then increased to 100% within 1 min, and the column washed for 5 min with 100% Buffer B. Eluents were sprayed into the TSQ Quantiva using Ion Max NG ion source with ion transfer tube temperature set to 350°C and vaporizer temperature 125°C. The TSQ Quantiva was run in negative mode with a spray voltage of 2600, sheath gas 40 and Aux gas 10. Levels of ATP, ADP and AMP were measured using multiple reactions monitoring mode (MRM) with optimised collision energies and radio frequencies previously determined by infusing pure compounds. Three transitions were used to monitor each of the three compounds, ATP (505.92>158.98, 505.92>408.12 and 505.92>426.12), ADP (426.98>158.98, 426.98>328.78 and 426.98>409.09) and AMP (345.96>134.20, 345.96>151.27 and 345.96>211.12).

T1 sequence (Q9UGJ0 whole entry R531G): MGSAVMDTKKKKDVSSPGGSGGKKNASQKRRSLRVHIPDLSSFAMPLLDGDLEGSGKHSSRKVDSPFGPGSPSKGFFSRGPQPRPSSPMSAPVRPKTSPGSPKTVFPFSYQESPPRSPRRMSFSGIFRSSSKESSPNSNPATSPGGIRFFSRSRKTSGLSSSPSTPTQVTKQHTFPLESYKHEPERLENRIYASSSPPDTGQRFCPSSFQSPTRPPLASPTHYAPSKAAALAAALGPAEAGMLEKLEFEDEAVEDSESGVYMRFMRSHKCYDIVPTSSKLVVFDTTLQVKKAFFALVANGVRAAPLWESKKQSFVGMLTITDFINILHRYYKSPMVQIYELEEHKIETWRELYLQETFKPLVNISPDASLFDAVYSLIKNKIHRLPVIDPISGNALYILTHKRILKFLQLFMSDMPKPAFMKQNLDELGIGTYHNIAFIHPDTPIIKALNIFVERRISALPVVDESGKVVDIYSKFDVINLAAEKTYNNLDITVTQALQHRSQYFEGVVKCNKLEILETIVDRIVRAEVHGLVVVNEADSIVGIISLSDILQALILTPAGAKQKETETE

SMILES | AMPK activity [1] | activation of AMPK complexes by subunit isoform ([2]; 100 μM, isoform-specific antibodies) | AMPK activity / Thr172 phosphorylation [2] | cellular AMP:ATP and ADP:ATP ratios [3]
CN(C)S(=O)(=O)c1ccc2c(c1)/C(=C/c1cc3c([nH]1)CCCC3)C(=O)N2 [SU6656] | activated AMPK and enhanced Thr172 phosphorylation in both WT and RG cells | activate AMPK complexes containing the α1, α2, β1, and β2 subunit isoforms | caused activation of AMPK | no significant effects
COc1ccc2cc3[n+](cc2c1OC)CCc1cc2c(cc1-3)OCO2 [berberine] | – | – | much smaller degree of AMPK activation | robustly increased
CNC(=O)c1cc(Oc2ccc(NC(=O)Nc3ccc(Cl)c(C(F)(F)F)c3)cc2)ccn1 [sorafenib] | Neither AMPK activity nor Thr172 phosphorylation were significantly elevated | – | activated AMPK | increased cellular AMP:ATP and ADP:ATP ratios to a similar or even greater extent than phenformin
